The source of these data is patent US6489324B2, “Piperazine compounds as inhibitors of MMP or TNF” (Fujisawa Pharmaceutical Co., Ltd., priority 1996, dated 2002).

The first data set concerns the target T1, Human collagenase (Homo sapiens, UniProt P03956).
T1 construct: endogenous in cells; host or cells: human skin fibroblasts stimulated with interleukin-1β
T1 sequence (P03956 100-469): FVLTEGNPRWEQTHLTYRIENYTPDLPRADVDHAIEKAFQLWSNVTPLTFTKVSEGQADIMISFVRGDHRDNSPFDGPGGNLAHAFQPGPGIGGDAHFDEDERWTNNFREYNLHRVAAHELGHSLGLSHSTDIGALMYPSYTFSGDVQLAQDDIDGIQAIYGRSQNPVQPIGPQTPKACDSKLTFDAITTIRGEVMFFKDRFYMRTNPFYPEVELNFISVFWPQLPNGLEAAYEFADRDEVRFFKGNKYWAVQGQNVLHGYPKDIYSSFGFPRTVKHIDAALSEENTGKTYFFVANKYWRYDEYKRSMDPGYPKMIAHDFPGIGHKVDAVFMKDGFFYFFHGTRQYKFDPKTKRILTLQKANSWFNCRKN
Description: Inhibitory Activity of Collagenase. It counts as biochemical. The note with it: at 1 × 10^−6M; activated collagenase from human skin fibroblast culture medium, FTTC-labeled calf skin type I collagen, 37° C., 120 minutes. Here is the method: Human collagenase was prepared from the culture medium of human skin fibroblast stimulated with interleukin-1β (1 ng/ml). Latent collagenase was activated by incubation with trypsin (200 μg/ml) at 37° C. for 60 minutes and the reaction was stopped by adding soybean trypsin inhibitor (800 μg/ml). Collagenase activity was determined using FTTC-labeled calf skin type I collagen. FTTC-collagen (2.5 mg/ml) was incubated at 37° C. for 120 minutes with the activated collagenase and test compound in 50 mM Tris buffer (containing 5 mM CaCl2, 200 mM NaCl and 0.02% NaN3, pH 7.5). After stopping the enzyme reaction by adding the equal volume of 70% ethanol-200 mM Tris buffer (pH 9.5), the reaction mixture was centrifuged, and collagenase activity was estimated by measuring the fluorescence intensity of supernatant at 495 nm (excitation) and 520 nm (emission).
On to `CS(=O)(=O)N1CCN(S(=O)(=O)c2ccc([N+](=O)[O-])cc2)[C@@H](C(=O)NO)C1` [Example 5, (2R)-1-(4-nitrobenzenesulfonyl)-4-methanesulfonylpiperazine-2-(N-hydroxy)carboxamide], for which the Inhibitory activity turned out to be 95.3% at 1 × 10^−6M.

System in another data set: not given
Experiment: not given
Conditions: not given
Broadly, the melting point is the temperature of the solid-liquid transition. Regarding `O=C(NO)[C@H]1CN(S(=O)(=O)CCc2ccccn2)CCN1S(=O)(=O)c1ccc(-c2ccccc2)s1` [Example 106, (2R)-N-Hydroxy-1-(5-phenylthiophene-2-sulfonyl)-4-[2-(2-pyridyl)-ethanesulfonyl]-2-piperazinecarboxamide], the melting point was 170 to 174 °C.

As for `CN(C)S(=O)(=O)N1CCN(S(=O)(=O)c2ccc(Oc3ccccc3)cc2)[C@@H](C(=O)NO)C1` [Example 176, (2R)-4-(N,N-Dimethylaminosulfonyl)-N-hydroxy-1-(4-phenoxybenzenesulfonyl)-2-piperazinecarboxamide], the melting point fell in the range of 153 to 155 °C.

As to `CS(=O)(=O)N1CCN(S(=O)(=O)c2ccc(-c3cccs3)cc2)[C@@H](C(=O)NOC2CCCCO2)C1` (stereo partly drawn) [Example 61, (2R)-4-Methanesulfonyl-1-[4-(thiophen-2-yl)benzenesulfonyl]-N-(2-tetrahydropyranyloxy)-2-piperazinecarboxamide], the melting point fell in the range of 194 to 195 °C.

`CCN(C)S(=O)(=O)[C@@]1(C(=O)NO)CNCCN1S(=O)(=O)c1ccc(-c2ccc(Cl)cc2)s1` [Example 162, (2R)-1-[5-(4-Chlorophenyl)thiophene-2-sulfonyl]-N-hydroxy-2-(N-methylethylaminosulfonyl)-2-piperazinecarboxamide]: the melting point lay in the range of 170 to 172 °C.

On to `O=C(NO)[C@H]1CN(C(=O)NC2CCCCC2)CCN1S(=O)(=O)c1ccc(-c2ccc(F)cc2)s1` [Example 109, (2R)-4-[(N-Cyclohexyl)aminocarbonyl]-1-[5-(4-fluorophenyl)-thiophene-2-sulfonyl]-N-hydroxy-2-piperazinecarboxamide], for which the melting point was 111 to 123 °C.

Regarding `CS(=O)(=O)NCCS(=O)(=O)N1CCN(S(=O)(=O)c2ccc(-c3ccc(C(F)(F)F)cc3)s2)[C@@H](C(=O)NO)C1` [Example 181, (2R)-N-Hydroxy-4-(2-(methanesulfonylamino)ethanesulfonyl]-1-[5-(4-trifluoromethylphenyl)thiophene-2-sulfonyl]-2-piperazinecarboxamide], the melting point was 105 to 108 °C.

Regarding `CS(=O)(=O)NCCS(=O)(=O)N1CCN(S(=O)(=O)c2ccc(-c3ccc(Cl)cc3)s2)[C@@H](C(=O)NO)C1` [Example 182, (2R)-1-[5-(4-Chlorophenyl)thiophene-2-sulfonyl]-N-hydroxy-4-[2-(methanesulfonylamino)ethanesulfonyl]-2-piperazinecarboxamide], the melting point lay in the range of 118 to 122 °C.

As to `CN(C)S(=O)(=O)N1CCN(S(=O)(=O)c2ccc(-c3ccc(CC#N)cc3)s2)[C@@H](C(=O)NO)C1` [Example 173, (2R)-1-[5-(4-Cyanomethylphenyl)thiophene-2-sulfonyl)-4-(N,N-dimethylaminosulfonyl)-N-hydroxy-2-piperazinecarboxamide], the melting point lay in the range of 170 to 172 °C.

On to `CS(=O)(=O)N1CCN(S(=O)(=O)/C=C/c2ccccc2)[C@@H](C(=O)NO)C1` [Example 189, (2R)-N-Hydroxy-1-(2-phenyl-2-trans-ethenylsulfonyl)-4-methanesulfonyl-2-piperazinecarboxamide], for which the melting point lay in the range of 94 to 99 °C.

`O=C(NO)[C@H]1CN(S(=O)(=O)c2ccc(-c3ccon3)s2)CCN1S(=O)(=O)c1ccc(-c2ccccc2)s1` [Example 139, (2R)-N-Hydroxy-4-[5-(isoxazol-3-yl)thiophene-2-sulfonyl]1-(5-phenylthiophene-2-sulfonyl)-2-piperazinecarboxamide] came in with a melting point of 204 °C.

For the molecule `O=C(NO)[C@H]1CN(C(=O)Nc2ccccc2)CCN1S(=O)(=O)c1ccc(-c2ccc(F)cc2)s1` [Example 108, (2R)-1-[5-(4-Fluorophenyl)thiophene-2-sulfonyl]-N-hydroxy-4-[(N-phenyl)aminocarbonyl]-2-piperazinecarboxamide], the melting point lay in the range of 187 to 188 °C.
